The text below walks through data of ChEMBL document CHEMBL1158856, “Bioactive constituents of Morus australis and Broussonetia papyrifera” (J Nat Prod, 1997).

A short description of assay [1]: Antiplatelet activity against rabbit platelet assessed as inhibition of arachidonic acid-induced platelet aggregation at 50 uM preincubated 3 mins before arachidonic acid challenge by turbidimetric method relative to control. The class given is functional, Oryctolagus cuniculus. Further details: scale not given: the % may be the effect or the level left.
Assay [2] can be described thus: Antiplatelet activity against rabbit platelet assessed as inhibition of thrombin-induced platelet aggregation at 50 uM preincubated 3 mins before thrombin challenge by turbidimetric method relative to control. The class given is functional, Oryctolagus cuniculus. Further details: scale not given: the % may be the effect or the level left.
Assay [3] is described as follows: Antiplatelet activity against rabbit platelet assessed as inhibition of platelet-activating factor-induced platelet aggregation at 50 uM preincubated 3 mins before PAF challenge by turbidimetric method relative to control. In kind it is functional, Oryctolagus cuniculus. Set-up: scale not given: the % may be the effect or the level left.
Assay [4] is described as follows: Antiplatelet activity against rabbit platelet assessed as inhibition of collagen-induced platelet aggregation at 50 uM preincubated 3 mins before collagen challenge by turbidimetric method relative to control. In kind it is functional, Oryctolagus cuniculus. Further details: scale not given: the % may be the effect or the level left.
The test system of assay [5] is Brain. As to the kind of experiment: Antioxidant activity in Wistar rat brain homogenate assessed as inhibition of Fe2+-induced TBARS formation at 100 uM by lipid peroxidation assay. In kind it is functional, tissue-based.
Assay [6] can be described thus: Antiplatelet activity against rabbit platelet assessed as inhibition of platelet-activating factor-induced platelet aggregation at 20 uM preincubated 3 mins before PAF challenge by turbidimetric method relative to control. In kind it is functional, cell-based, Oryctolagus cuniculus. Further details: Activity: scale not given: the % may be the effect or the level left. To be noted: for IC50: Oryctolagus cuniculus, Platelet.

Assay [7] is described as follows: (§1) Antiproliferative activity against 5-HT-stimulated rat VSMC assessed as inhibition of [3H]thymidine incorporation into DNA after 20 hrs by liquid scintillation counting relative to control. The class given is functional.
The test system of assay [8] is VSMC. The assay is described as §1. In kind it is functional.
A short description of assay [9]: (§2) Antiproliferative activity against FCS-stimulated rat VSMC assessed as inhibition of [3H]thymidine incorporation into DNA after 20 hrs by liquid scintillation counting relative to control. In kind it is functional. On the technique in general: Uptake of a labelled nucleoside into DNA is a usual measure of proliferation.
The subject of assay [10] is VSMC. The description is as §2. In kind it is functional.
Assay [11] deals with Brain. The assay is described as follows: Antioxidant activity in Wistar rat brain homogenate assessed as inhibition of Fe2+-induced TBARS formation by lipid peroxidation assay. The class given is functional, tissue-based.
Assay [12] in a line: (§3) Antiproliferative activity against ADP-stimulated rat VSMC assessed as inhibition of [3H]thymidine incorporation into DNA after 20 hrs by liquid scintillation counting relative to control. The class given is functional.
Assay [13] concerns VSMC. The description is as §3. In kind it is functional.
A short description of assay [14]: Antiproliferative activity against PDGF-stimulated rat VSMC assessed as inhibition of [3H]thymidine incorporation into DNA after 20 hrs by liquid scintillation counting relative to control. The class given is functional.
A short description of assay [15]: Antiplatelet activity against rabbit platelet assessed as inhibition of collagen-induced platelet aggregation at 100 uM preincubated 3 mins before collagen challenge by turbidimetric method relative to control. In kind it is functional, Oryctolagus cuniculus. Set-up: scale not given: the % may be the effect or the level left.
Assay [16] is described as follows: Antiplatelet activity against rabbit platelet assessed as inhibition of thrombin-induced platelet aggregation at 100 uM preincubated 3 mins before thrombin challenge by turbidimetric method. Set-up: scale not given: the % may be the effect or the level left. The class given is functional, Oryctolagus cuniculus.
A short description of assay [17]: Antiplatelet activity against rabbit platelet assessed as inhibition of arachidonic acid-induced platelet aggregation at 20 uM preincubated 3 mins before arachidonic acid challenge by turbidimetric method relative to control. Further details: scale not given: the % may be the effect or the level left. The class given is functional, Oryctolagus cuniculus.
A short description of assay [18]: Antiplatelet activity against rabbit platelet assessed as inhibition of platelet-activating factor-induced platelet aggregation at 100 uM preincubated 3 mins before PAF challenge by turbidimetric method relative to control. Further details: scale not given: the % may be the effect or the level left. In kind it is functional, Oryctolagus cuniculus.
Assay [19] is described as follows: Antiplatelet activity against rabbit platelet assessed as inhibition of arachidonic acid-induced platelet aggregation at 100 uM preincubated 3 mins before arachidonic acid challenge by turbidimetric method relative to control. Further details: scale not given: the % may be the effect or the level left. In kind it is functional, Oryctolagus cuniculus.
Assay [20] can be described thus: Antiplatelet activity against rabbit platelet assessed as inhibition of arachidonic acid-induced platelet aggregation at 300 uM preincubated 3 mins before arachidonic acid challenge by turbidimetric method relative to control. In kind it is functional, Oryctolagus cuniculus. Further details: scale not given: the % may be the effect or the level left.
The nature of assay [21]: Antiplatelet activity against rabbit platelet assessed as inhibition of platelet-activating factor-induced platelet aggregation at 300 uM preincubated 3 mins before PAF challenge by turbidimetric method relative to control. The class given is functional, Oryctolagus cuniculus. Further details: scale not given: the % may be the effect or the level left.
The nature of assay [22]: Antiplatelet activity against rabbit platelet assessed as inhibition of collagen-induced platelet aggregation at 300 uM preincubated 3 mins before collagen challenge by turbidimetric method relative to control. In kind it is functional, Oryctolagus cuniculus. Set-up: scale not given: the % may be the effect or the level left.
Assay [23] in a line: Antiplatelet activity against rabbit platelet assessed as inhibition of thrombin-induced platelet aggregation at 300 uM preincubated 3 mins before thrombin challenge by turbidimetric method relative to control. In kind it is functional, Oryctolagus cuniculus. Set-up: scale not given: the % may be the effect or the level left.

Regarding `CC(=O)Oc1ccccc1C(=O)O` [ASPIRIN], the Activity stood at 0% in assay [1], 91.9% in assay [2], 90.5% in assay [3] and 85.4% in assay [4].

Regarding `Cc1cc(C(C)(C)C)c(O)c(C(C)(C)C)c1` [BUTYLATED HYDROXYTOLUENE], the inhibition in the assay with Brain [5] was determined as 91.3%. The IC50 in [6] stood at 14.5 µM.

For the compound `CC(C)=CCc1cc(-c2oc3c(CC=C(C)C)c(O)cc(O)c3c(=O)c2O)ccc1O` [BROUSSOFLAVONOL F], the “inhibition (INH)” value in assay [7] stood at 0%; in assay [9], 0%; in assay [12] it was 7.8%; in assay [14], 127%. Moreover, the Activity entry in the assay on VSMC [8], in the assay with VSMC [10], in the assay with Brain [11] and in the assay with VSMC [13] was “Dose-dependent effect” in each case. The IC50 in assay [6] turned out to be 2.7 µM.

For `CC(C)=CCc1c(-c2ccc(O)cc2O)oc2c3c(cc(O)c2c1=O)OC(C)(C)C=C3` [MORUSIN], the Activity is given as 74.2% in assay [1]; 5.3% in assay [15]; 81.8% in assay [16]; 62.5% in assay [3]; 82.8% in assay [17]; 0% in [18]. Moreover, the Activity in assay [19] stood at 0%; in assay [6], 81.3%.

With `CC(C)=CCc1c(-c2ccc(O)cc2O)oc2c(CC=C(C)C)c(O)cc(O)c2c1=O` [KUWANON C], the Activity is 60.2% in assay [1]; 0% in assay [20]; 0% in [21]; 67.6% in [3]; 83.9% in [17]; 26.9% in assay [18]. The Activity in [22] worked out at 5.5%; in assay [19], 5.9%; in [6] it was 78.8%; in assay [23] it was 54.8%.

As for `CC(C)=CCc1c([C@@H]2CCc3ccc(O)cc3O2)cc2c(c1O)OC(C)(C)C(O)C2O` (stereo not given in full) [BROUSSOFLAVAN A], the “inhibition (INH)” value amounted to 19% in assay [7], 39.5% in [9], 67% in assay [12] and 258% in assay [14]. Moreover, in the assay on Brain [11], the Activity result was “Dose-dependent effect”. Further, in assay [6], the IC50 came to 2.1 µM.

As for `CC(C)=CCc1cc2c(cc1O)O/C(=C\c1ccc(O)c(O)c1)C2=O` [BROUSSOAURONE A], the Activity result in the assay with Brain [11] is “Dose-dependent effect”. Besides, in assay [6], the IC50 was 1.2 µM.

In the case of `CC(C)=CCc1c(-c2oc3c(CC=C(C)C)c(O)cc(O)c3c(=O)c2O)cc(O)c(O)c1CC=C(C)C` [BROUSSOFLAVONOL E], the “inhibition (INH)” value came out at 0% in assay [7], 0% in assay [9], 0.4% in assay [12] and 127% in assay [14]. For the same compound, the Activity entry in the assay with VSMC [8], with VSMC [10], with Brain [11] and in the assay with VSMC [13] was “Dose-dependent effect” in each case. The IC50 in [6] amounted to 1 µM.

A word on the inhibition: it is the share of the control response that was lost under treatment. The IC50 is the concentration needed to halve the response being measured.
